Results published in publication PMC10693528, “A high-throughput metabolomics in vitro platform for the characterization of hepatotoxicity” (Cell Biology and Toxicology, 2023).

Test system: HepG2 cells
Assay: LC-MS/MS targeted intracellular metabolomics
Format: cell-based, human
Settings: Suppl Fig 11, C3, 48 h
Protocol: Metabolite profiling of cells was performed directly in the same 96-well plate according to a standardized protocol described below. In order to prevent any interaction with the cell material, the automatic sampler was adjusted to pick up the sample from the supernatant at a specified depth avoiding the contact with the bottom of the plate.
After the initial quenching step (50 μL isopropanol 80%), additional 70 μL of isopropanol 80%, containing internal standards (methionine-D3, tryptophan-D5, arginine-13C6-15N4, Boc-Ala-Gly-Gly-Gly-OH, coenzyme Q1, coenzyme Q2, coenzyme Q4) were added to each well. The internal standards were used for quality control by visual inspection (signal intensity, peak shape, retention time); they were not used for normalization. Afterwards, plates were shaken for 5 min, 750 rpm at 20 °C, and placed for 30 s in the ultrasonic device. Then, the plates were centrifugated for 10 min, at 5485 g, 15 °C. Further, 2.5 μL of the extract were injected each for reversed-phase and hydrophilic interaction liquid chromatography followed by MS/MS detection (AB Sciex QTrap 6500+) using the positive and negative ionization mode. For reverse-phase high-performance liquid chromatography (RP-HPLC, Ascentis Express C18, 5 cm × 2.1 mm, 2.7 μm Supelco), gradient elution was performed with mobile phase A, water/methanol/0.1 M ammonium formate (1:1:0.02, w/w), and B, methyl-tert-butylether/2-propanol/methanol/0.1 M ammonium formate/formic acid (4:2:1:0.07:0.035, w/w) 5.9 min linear gradient: 0 min 100% A, 0.5 min 75% A, 5.9 min 10% A; followed by 0% A until 6.7 min; re-equilibration at 100% A until 7.7 min; flow rate 600 μL/min; column temperature 40 °C HILIC (ZIC-HILIC, 2.1 × 100 mm, 3.5 μm, Supelco) gradient elution was performed with mobile phase C, acetonitrile/water (99:1, v/v) with 0.2% (v) acetic acid, and D, 7 mM ammonium acetate with 0.2% (v) acetic acid (5.0 min linear gradient: 0 min 100% C, 5 min 10% C; followed by a linear gradient back to 100%C until 6.5 min; re-equilibration at 100% C until 7.5 min; flow rate 600 μL/min; column temperature 40 °C.). Two LC-MS systems with identical configuration were used for the analysis. Normalization to lyophilized reference samples (see below) was used to compensate for variation from between analytical batches. The efficiency of this normalization procedure was checked by principal component analysis (PCA), confirming that Pool samples from different analytical batches clustered together.
Reference samples derived from lyophilized untreated HepG2 cells (technical control samples) were measured in parallel throughout the entire analytical process. Data were normalized against the median of these lyophilized HepG2 cells reference samples, to give normalized ratios (performed for each sample per metabolite). This compensated for inter- and intra-instrumental variation. To correct for small differences in cell numbers within and between different treatment groups, data were also normalized to the within sample median, as described in detail by (Ramirez et al. [2018]). For intracellular metabolomic analysis, the median of each sample was calculated across all the 221 measured metabolites.
To generate metabolic profiles for the different treatments, heteroscedastic t test (Welch test) was applied to log-transformed normalized metabolite data to compare treated groups with their respective controls.
Principal component analysis (PCA) and hierarchical clustering (HCA) analyses were performed using R software environment (https://www.r-project.org/). PCA was conducted using the ropls package (Thévenot et al. [2015]) with log10-transformed input data and standard scaling. HCA was performed using the pvclust package (Suzuki et al. [2019]), (https://CRAN.R-project.org/package=pvclust). Input: log10(Ratio), clustering method: Ward D2, distance method: Manhattan, bootstrapping: 10000 times.

## CC(=O)N1CCN(c2ccc(OCC3COC(Cn4ccnc4)(c4ccc(Cl)cc4Cl)O3)cc2)CC1 (centres unmarked) [Ketoconazole]
  2'-Deoxycytidine level vs controls: 0.76
  5-Hydroxytryptophan level vs controls: 0.87
  Carnitine level vs controls: 0.77
  Ceramide (d16:1.C24:0) level vs controls: 0.48
  Ceramide (d17:1.C24:0) level vs controls: 0.40
  Ceramide (d18:1.C16:0) level vs controls: 0.74
  Ceramide (d18:1.C18:0) level vs controls: 0.58
  Ceramide (d18:1.C20:0) level vs controls: 0.38
  Ceramide (d18:1.C21:0) level vs controls: 0.64
  Ceramide (d18:1.C22:0) level vs controls: 0.54
  Ceramide (d18:1.C23:0) level vs controls: 0.50
  Ceramide (d18:1.C24:0) level vs controls: 0.60
  Ceramide (d18:1.C24:1) level vs controls: 0.70
  Ceramide (d18:2.C16:0) level vs controls: 0.55
  Ceramide (d18:2.C18:0) level vs controls: 0.38
  Ceramide (d18:2.C22:0) level vs controls: 0.39
  Ceramide (d18:2.C23:0) level vs controls: 0.49
  Ceramide (d18:2.C24:0) level vs controls: 0.48
  Ceramide (d18:2.C24:1) level vs controls: 0.66
  Ceramide (d18:2.C24:2) level vs controls: 0.36
  Cholesterylester (C20:2) level vs controls: 0.58
  Choline plasmalogen (C36:4) level vs controls: 1.23
  Choline plasmalogen (C36:5) level vs controls: 1.44
  Coenzyme Q10 level vs controls: 0.65
  Glutamate level vs controls: 0.92
  Glutathione (GSH) level vs controls: 0.90
  Hexadecanoylcarnitine level vs controls: 1.97
  Hexadecenoylcarnitine level vs controls: 3.61
  Isopentenyl pyrophosphate (IPP) level vs controls: 0.50
  Lysophosphatidylcholine (C14:0) level vs controls: 1.21
  Lysophosphatidylcholine (C16:0) level vs controls: 1.96
  Lysophosphatidylcholine (C16:1) level vs controls: 2.67
  Lysophosphatidylcholine (C20:0) level vs controls: 1.34
  Lysophosphatidylcholine (C20:1) level vs controls: 1.07
  Lysophosphatidylcholine (C20:4) level vs controls: 6.43
  Lysophosphatidylcholine (C22:0) level vs controls: 1.53
  Lysophosphatidylcholine (C24:1) level vs controls: 2.21
  Lysophosphatidylethanolamine (C16:0) level vs controls: 0.82
  Lysophosphatidylethanolamine (C18:0) level vs controls: 1.22
  Lysophosphatidylethanolamine (C20:4) level vs controls: 4.71
  Lysophosphatidylethanolamine (C22:6) level vs controls: 4.79
  N-Acetylaspartate level vs controls: 0.69
  N-Acetylserine level vs controls: 0.84
  Octadecenoylcarnitine level vs controls: 3.35
  Pantothenic acid level vs controls: 0.85
  Phosphatidylcholine (C32:0) level vs controls: 0.81
  Phosphatidylcholine (C34:0) level vs controls: 0.81
  Phosphatidylcholine (C34:1) level vs controls: 0.79
  Phosphatidylcholine (C34:2) level vs controls: 0.89
  Phosphatidylcholine (C34:3) level vs controls: 1.19
  Phosphatidylcholine (C36:1) level vs controls: 0.77
  Phosphatidylcholine (C36:2) level vs controls: 0.64
  Phosphatidylcholine (C36:3) level vs controls: 0.89
  Phosphatidylcholine (C36:4) level vs controls: 0.67
  Phosphatidylcholine (C36:5) level vs controls: 0.66
  Phosphatidylcholine (C38:4) level vs controls: 1.06
  Phosphatidylcholine (C38:6) level vs controls: 0.74
  Phosphatidylcholine (C40:6) level vs controls: 1.10
  Phosphatidylcholine (C40:7) level vs controls: 1.16
  Phosphatidylcholine (C40:8) level vs controls: 1.11
  Phosphatidylethanolamine (C32:0) level vs controls: 0.86
  Phosphatidylethanolamine (C34:0) level vs controls: 0.73
  Phosphatidylethanolamine (C34:1) level vs controls: 0.82
  Phosphatidylethanolamine (C36:0) level vs controls: 0.70
  Phosphatidylethanolamine (C36:1) level vs controls: 0.78
  Phosphatidylethanolamine (C36:2) level vs controls: 0.93
  Phosphatidylethanolamine (C36:4) level vs controls: 0.96
  Phosphatidylethanolamine (C38:3) level vs controls: 0.90
  Phosphatidylethanolamine (C38:4) level vs controls: 1.10
  Phosphatidylethanolamine (C38:5) level vs controls: 1.10
  Phosphatidylethanolamine (C38:6) level vs controls: 0.86
  Phosphatidylethanolamine (C40:7) level vs controls: 1.09
  Phosphocholine level vs controls: 0.82
  Pipecolic acid level vs controls: 0.86
  Proline level vs controls: 0.79
  Pyridoxal level vs controls: 0.82
  S-Adenosylhomocysteine level vs controls: 0.69
  Sphingomyelin (d32:1) level vs controls: 1.49
  Sphingomyelin (d32:2) level vs controls: 1.28
  Sphingomyelin (d33:1) level vs controls: 1.18
  Sphingomyelin (d34:0) level vs controls: 2.87
  Sphingomyelin (d34:2) level vs controls: 1.31
  Sphingomyelin (d35:1) level vs controls: 1.86
  Sphingomyelin (d35:2) level vs controls: 1.71
  Sphingomyelin (d36:1) level vs controls: 1.62
  Sphingomyelin (d36:2) level vs controls: 1.45
  Sphingomyelin (d36:3) level vs controls: 1.48
  Sphingomyelin (d37:1) level vs controls: 1.49
  Sphingomyelin (d38:1) level vs controls: 1.42
  Sphingomyelin (d38:2) level vs controls: 1.21
  Sphingomyelin (d39:1) level vs controls: 1.79
  Sphingomyelin (d40:1) level vs controls: 1.85
  Sphingomyelin (d40:2) level vs controls: 1.67
  Sphingomyelin (d41:1) level vs controls: 1.75
  Sphingomyelin (d41:2) level vs controls: 1.88
  Sphingomyelin (d42:1) level vs controls: 1.54
  Sphingomyelin (d42:2) level vs controls: 1.83
  Taurine level vs controls: 1.32
  Tetradecanoylcarnitine level vs controls: 2.20
  Threonine level vs controls: 0.85
  Triacylglycerol (C30:0.C18:1) level vs controls: 0.61
  Triacylglycerol (C32:0.C16:0) level vs controls: 0.23
  Triacylglycerol (C32:0.C16:1) level vs controls: 0.51
  Triacylglycerol (C34:0.C16:0) level vs controls: 0.16
  Triacylglycerol (C34:0.C17:0) level vs controls: 0.34
  Triacylglycerol (C34:0.C18:0) level vs controls: 0.14
  Triacylglycerol (C34:0.C18:1) level vs controls: 0.31
  Triacylglycerol (C34:1.C16:0) level vs controls: 0.44
  Triacylglycerol (C34:1.C18:1) level vs controls: 0.83
  Triacylglycerol (C34:1.C18:3) level vs controls: 1.33
  Triacylglycerol (C34:2.C18:0) level vs controls: 0.68
  Triacylglycerol (C34:2.C18:1) level vs controls: 1.31
  Triacylglycerol (C36:1.C18:0) level vs controls: 0.27
  Triacylglycerol (C36:1.C18:1) level vs controls: 0.61
  Triacylglycerol (C36:2.C18:1) level vs controls: 1.14
  Triacylglycerol (C36:3.C18:1) level vs controls: 1.57
  Triacylglycerol (C36:3.C18:2) level vs controls: 2.03
  Triacylglycerol (C36:4.C16:0) level vs controls: 1.15
  Triacylglycerol (C36:4.C18:0) level vs controls: 1.19
  myo-Inositol-2-phosphate level vs controls: 0.50
First of two lines with this name
  Sphingomyelin (d34:1) level vs controls: 1.40
Second of two lines with this name
  Sphingomyelin (d34:1) level vs controls: 1.16
